Reference: patent US6914045B2, “Glycopeptide antibiotics” (Wyeth Holdings Corporation, priority 2001, dated 2005)
Numbered stars: 1 amine (or outer) side, 2 acyl side, 3 side chain; on linkers, the order of the positions; unused ones are H or OH. Square brackets hold non-standard residues; d marks the D form. Peptide text beside a SMILES is read from it. * marks the point of attachment. ξ: configuration not given here. X1 = N=C1NCC(C(O)C(N[*:1])C(=O)[*:2])N1C1OC(CO)C(O)C(O)C1O; ξEnduracididine(βξ-OH,4'ξ) = N=C1NCC(C(O)C(N)C(=O)O)N1; X2 = OCC1OC(OC2C(CO)OC(*)C(O)C2O)C(O)C(O)C1O; Cha = N[CH](CC1CCCCC1)C(=O)O

How the values were obtained:
[1] = tested on: Enterococcus sp.; assay: in vitro antibacterial evaluation, MIC by broth dilution; assay type: cell-based; conditions: broth dilution, 18 hours at 35° C.
Summary of the method: (§1)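 Step 1: dilute antibiotic across 64-0.06 μg/mL in Muller-Hinton II […]. Step 2: inoculate at 5×10^5 CFU/mL.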

[2] = tested on: Escherichia coli; assay: as above; assay type: cell-based; conditions: 18 hours at 35° C.
Summary of the method: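 Broth dilution per NCCLS standard M7-A2 in Muller-Hinton II […], with an inoculum of 5×10^5 CFU/mL and antibiotic spanning 64-0.06 μg/mL. The MIC is the lowest concentration that inhibits growth of the organism.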

[3] = tested on: Staphylococcus sp.; assay: as above; assay type: cell-based; conditions: broth dilution, 18 hours at 35° C.
Summary of the method: as §1

[4] = tested on: Streptococcus sp.; assay: as above; assay type: cell-based; conditions: broth dilution, 18 hours at 35° C.
Summary of the method: as §1

[5] = clinical pathology (serum clinical chemistry) in mice; assay type: in vivo; conditions: CD-1 mice, 20 mg/kg intravenously daily for 9 days, sera day 10
Experimental: 20-day-old CD-1 mice were divided into a vehicle control group (5 mice) and a treatment group (5 mice). Samples of glycopeptide antibiotics were administered at 20 mg/kg intravenously daily for 9 days.

[6] = anatomic pathology (histopathology of heart and kidney) in mice; assay type: in vivo; conditions: CD-1 mice, 20 mg/kg intravenously daily for 9 days, necropsy day 10, microscopic histopathology
Experimental: Samples of tissues from necropsied mice were formalin-fixed, paraffin-embedded, sectioned, stained with hematoxylin and eosin, and examined microscopically. Histopathologic findings were recorded. These findings were subjectively graded on a scale corresponding to slight, mild, moderate, marked and severe as compared to untreated controls.

N=C1NCC(C(O)C2NC(=O)C(Cc3ccc(OC4OC(CO)C(OC5OC(CO)C(O)C(O)C5O)C(O)C4O)cc3)NC(=O)C(CC3CCCCC3)NC(=O)CNC(=O)C(CO)NC(=O)C(C(O)C3CNC(=N)N3C3OC(CO)C(O)C(O)C3O)NC2=O)N1 (stereo not drawn) [Example 263, Cyclo[3-cyclohexylalanyl-O-(4-O-hexopyranosylhexopyranosyl)tyrosyl-3-(2-iminoimidazolidin-4-yl)seryl-3-(3-hexopyranosyl-2-iminoimidazolidin-4-yl)serylserylglycyl]] (cyclo(G[Cha]Y(X2)[ξEnduracididine(βξ-OH,4'ξ)][X1]S); configuration not given here)
++: Anatomical Pathology (Day 10), Kidney [6]
>64 µg/mL: MIC Enterococcus avium (GC 4558) ([1]; Enterococcus avium (GC 4558)) | MIC Enterococcus faecalis (ATCC 29212) ([1]; Enterococcus faecalis (ATCC 29212)) | MIC Enterococcus faecalis (GC 4553) ([1]; Enterococcus faecalis (GC 4553)) | MIC Enterococcus faecalis (GC 4554) ([1]; Enterococcus faecalis (GC 4554)) | MIC Enterococcus faecium (GC 2243) ([1]; Enterococcus faecium (GC 2243)) | MIC Enterococcus faecium (GC 4556) ([1]; Enterococcus faecium (GC 4556)) | MIC Enterococcus faecalis (ATCC 29212) ([1]; strain ATCC 29212) | MIC Enterococcus faecalis (GC 2242) ([1]; strain GC 2242) | MIC Enterococcus faecium (GC 2243) ([1]; strain GC 2243) | MIC Enterococcus faecalis (GC 4552) ([1]; strain GC 4552) | MIC Enterococcus faecalis (GC 4553) ([1]; strain GC 4553) | MIC Enterococcus faecalis (GC 4554) ([1]; strain GC 4554) | MIC Enterococcus faecium (GC 4556) ([1]; strain GC 4556) | MIC Enterococcus avium (GC 4558) ([1]; strain GC 4558) | MIC Escherichia coli (ATCC 25922) ([2]; Escherichia coli (ATCC 25922)) | MIC Escherichia coli (GC 4559) ([2]; Escherichia coli (GC 4559)) | MIC Staphylococcus aureus (GC 4544) [3] | MIC Staphylococcus aureus (GC 4544) ([3]; strain GC 4544)
+116%: Clinical Chemistry (Day 10) % of Control, Creatinine [5]
+: Anatomical Pathology (Day 10), Heart [6]
16 µg/mL: MIC Escherichia coli (GC 4560) ([2]; Escherichia coli (GC 4560)) | MIC Coagulase Negative Staphylococcus (GC 4549) [3] | MIC Coagulase Negative Staphylococcus (GC 4549) ([3]; strain GC 4549)
64 µg/mL: MIC Coagulase Negative Staphylococcus (GC 4547) [3] | MIC Coagulase Negative Staphylococcus (GC 4551) [3] | MIC Staphylococcus aureus (ATCC 29213) [3] | MIC Staphylococcus aureus (GC 1131) [3] | MIC Staphylococcus aureus (GC 4541) [3] | MIC Staphylococcus aureus (GC 4542) [3] | MIC Staphylococcus aureus (GC 4545) [3] | MIC Staphylococcus aureus (ATCC 29213) ([3]; strain ATCC 29213) | MIC Staphylococcus aureus (GC 1131) ([3]; strain GC 1131) | MIC Staphylococcus aureus (GC 4541) ([3]; strain GC 4541) | MIC Staphylococcus aureus (GC 4542) ([3]; strain GC 4542) | MIC Staphylococcus aureus (GC 4545) ([3]; strain GC 4545) | MIC Coagulase Negative Staphylococcus (GC 4547) ([3]; strain GC 4547) | MIC Coagulase Negative Staphylococcus (GC 4551) ([3]; strain GC 4551)
32 µg/mL: MIC Enterococcus faecium (GC 4557) ([1]; Enterococcus faecium (GC 4557)) | MIC Enterococcus faecium (GC 4557) ([1]; strain GC 4557) | MIC Coagulase Negative Staphylococcus (GC 4548) [3] | MIC Staphylococcus aureus-SMITH (GC 4543) [3] | MIC Staphylococcus haemolyticus (GC 4546) [3] | MIC Staphylococcus haemolyticus (GC 4546) ([3]; strain GC 4546) | MIC Coagulase Negative Staphylococcus (GC 4548) ([3]; strain GC 4548) | MIC Staphylococcus aureus-SMITH (GC 4543) ([3]; strain SMITH GC 4543) | MIC Streptococcus agalactiae (GC 4564) ([4]; strain GC 4564) | MIC Streptococcus pyogenes (ID-3187) ([4]; strain ID-3187)
